Among the data in PubChem BioAssay (NCI) are TGI and GI50 values, retold here.

SMILES strings stand for the structures.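 All cell lines were grown in 96-well plates and treated with compound for 48 hours. The concentration for 50% growth inhibition is given as GI50. TGI denotes the concentration required for complete inhibition of growth.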

Some test systems named below: SW-620 colon; A498 renal; UACC-257 melanoma; MDA-MB-435; SF-295 CNS; RXF 393 renal; NCI-H522 lung; OVCAR-4 ovarian; OVCAR-5 ovarian; IGROV1 ovarian.
Holding throughout (test): growth of human tumour cells (NCI), 48 h

Consider `Oc1c(Cl)c(Cl)c(O)c2c1CCCC2`, for which the TGI was 3.92 µM in the assay on SW-620 colon; 33.1 µM in the assay with A498 renal; 30.5 µM in the assay with UACC-257 melanoma; 34.1 µM in the assay on MDA-MB-435; 37.6 µM in the assay with SF-295 CNS; 22.5 µM in the assay with RXF 393 renal.
For `Nc1ccccc1C#C/C=C\C#Cc1cccc(O)c1`, the GI50 was 3.12 µM in the assay on SW-620 colon; 11 µM with A498 renal; 1.09 µM in the assay with NCI-H522 lung; 10.2 µM with UACC-257 melanoma; 6.68 µM in the assay with OVCAR-4 ovarian; 7.64 µM in the assay on OVCAR-5 ovarian. The GI50 is 1.5 µM with MDA-MB-435, 2.19 µM with SF-295 CNS, 0.423 µM in the assay on RXF 393 renal and 0.646 µM with IGROV1 ovarian. Besides, the TGI with SW-620 colon was 15.2 µM; in the assay on A498 renal it was 35.9 µM; in the assay with NCI-H522 lung, 11.5 µM; in the assay with UACC-257 melanoma, 23.4 µM; with OVCAR-4 ovarian, more than 84.8 µM; with OVCAR-5 ovarian it was 23 µM. Also, the TGI with MDA-MB-435 turned out to be 4.12 µM; in the assay with SF-295 CNS, 8.29 µM; with RXF 393 renal, 5.02 µM; in the assay with IGROV1 ovarian, 12.3 µM.
In the case of `Cc1ccc(C(=O)NC2CCC2)cc1-c1ccc(C(=O)NCC2CC2)cc1`, the GI50 in the assay on SW-620 colon was more than 25 µM; in the assay with A498 renal, 25 µM; with NCI-H522 lung it was more than 25 µM; in the assay with UACC-257 melanoma, more than 25 µM; with OVCAR-4 ovarian, more than 25 µM; in the assay with OVCAR-5 ovarian, more than 25 µM. The GI50 in the assay on MDA-MB-435, in the assay on SF-295 CNS, in the assay on RXF 393 renal and with IGROV1 ovarian was more than 25 µM in each case. Also, the TGI in the assay with SW-620 colon, in the assay with A498 renal, with NCI-H522 lung, in the assay on UACC-257 melanoma, in the assay with OVCAR-4 ovarian and in the assay with OVCAR-5 ovarian was more than 25 µM in each case. Further, the TGI in the assay with MDA-MB-435, in the assay on SF-295 CNS, with RXF 393 renal and in the assay on IGROV1 ovarian was more than 25 µM in each case.
In the case of `COC(=O)c1cc2ccccc2c2c3c(ccc12)OCO3`, the GI50 in the assay on SW-620 colon is 900 µM; in the assay with A498 renal, 15.5 µM; with UACC-257 melanoma it was 199 µM; in the assay on OVCAR-4 ovarian, 22.3 µM; in the assay with OVCAR-5 ovarian, 223 µM; in the assay on MDA-MB-435, 531 µM. Further, the GI50 is 99.8 µM with SF-295 CNS, 14.8 µM in the assay with RXF 393 renal and 90.7 µM in the assay on IGROV1 ovarian. Moreover, the TGI with SW-620 colon was more than 1000 µM; in the assay on A498 renal it was 129 µM; in the assay on UACC-257 melanoma, more than 1000 µM; in the assay with OVCAR-4 ovarian, 133 µM; in the assay with OVCAR-5 ovarian, more than 1000 µM; in the assay with MDA-MB-435, more than 1000 µM. Moreover, the TGI is 548 µM with SF-295 CNS, 89.5 µM with RXF 393 renal and more than 1000 µM in the assay with IGROV1 ovarian.
For the compound `O=[N+]([O-])c1ccc(N=Nc2ccc(O)c3ccccc23)cc1`, the GI50 in the assay on SW-620 colon is 3.33 µM; with A498 renal, 3.32 µM; with NCI-H522 lung it was 2.23 µM; with UACC-257 melanoma, 3.6 µM; with OVCAR-4 ovarian, 2.83 µM; with OVCAR-5 ovarian, 14.4 µM. Also, the GI50 was 5.31 µM in the assay with MDA-MB-435, 9.89 µM in the assay on SF-295 CNS, 4.87 µM in the assay with RXF 393 renal and 5.27 µM in the assay with IGROV1 ovarian. Moreover, the TGI is more than 100 µM in the assay on SW-620 colon; 86.8 µM in the assay with A498 renal; 8.18 µM with NCI-H522 lung; 14.6 µM in the assay on UACC-257 melanoma; more than 100 µM with OVCAR-4 ovarian; 75.8 µM in the assay with OVCAR-5 ovarian. Moreover, the TGI with MDA-MB-435 is 19.1 µM; with SF-295 CNS, more than 100 µM; with RXF 393 renal, 39.4 µM; in the assay on IGROV1 ovarian, more than 100 µM.
As for `COc1ccc(NC(=S)c2ccoc2C)cc1CC(=O)OC(C)C`, the TGI with SW-620 colon, with NCI-H522 lung, in the assay with UACC-257 melanoma, in the assay on OVCAR-4 ovarian, in the assay with OVCAR-5 ovarian and in the assay on MDA-MB-435 was more than 100 µM in each case. Also, the TGI in the assay on SF-295 CNS and in the assay on IGROV1 ovarian was more than 100 µM each time.
For `CN(C)c1ccc(C(=NO)c2ccc(N(C)C)cc2)cc1`, the GI50 in the assay on SW-620 colon was 0.729 µM; in the assay with A498 renal, 2.57 µM; in the assay with NCI-H522 lung, 1.08 µM; in the assay with UACC-257 melanoma, 5.12 µM; in the assay with OVCAR-4 ovarian, 89 µM; with OVCAR-5 ovarian, 15.1 µM. Besides, the values for the GI50 with MDA-MB-435, in the assay with RXF 393 renal and with IGROV1 ovarian were 0.277 µM, 1.46 µM and 2.4 µM, respectively. Further, the TGI with SW-620 colon, in the assay with A498 renal, with NCI-H522 lung, in the assay on UACC-257 melanoma, with OVCAR-4 ovarian and in the assay with OVCAR-5 ovarian was more than 100 µM throughout. Further, the results for the TGI with MDA-MB-435, in the assay with RXF 393 renal and with IGROV1 ovarian were 1.92 µM, 5.03 µM and more than 100 µM, respectively.
In the case of `CC(C)(C)c1[nH]nc2c1C(c1cc3ccccc3[nH]c1=O)Nc1cc(C(=O)OCc3ccccc3)ccc1N2` (stereo not drawn), the GI50 was 3.53 µM with SW-620 colon; 3.73 µM with A498 renal; 3.11 µM in the assay on NCI-H522 lung; 2.71 µM in the assay on UACC-257 melanoma; 4.12 µM in the assay on OVCAR-4 ovarian; 4.05 µM with OVCAR-5 ovarian. For the same compound, the GI50 is 2.95 µM in the assay with MDA-MB-435, 3.17 µM in the assay with SF-295 CNS and 4.32 µM in the assay with IGROV1 ovarian. Further, the TGI in the assay on SW-620 colon was more than 100 µM; with A498 renal it was 81.9 µM; in the assay on NCI-H522 lung, 8.78 µM; with UACC-257 melanoma it was more than 100 µM; with OVCAR-4 ovarian, more than 100 µM; with OVCAR-5 ovarian, more than 100 µM. Also, the TGI was more than 100 µM in the assay with MDA-MB-435, 38.5 µM with SF-295 CNS and more than 100 µM with IGROV1 ovarian.
